Data taken from US12414961B2, “Substituted nucleosides and nucleotides for treating viral infections” (priority 2013, dated 2025).

What was measured:
HCMV = HCMV antiviral assay; format: cell-based; conditions: Human betaherpesvirus 5
HIV = HIV infected PBMC assay; format: cell-based; conditions: Human immunodeficiency virus 1, PBMC
Description: Fresh human peripheral blood mononuclear cells (PBMCs) were obtained from a commercial source (Biological Specialty) and were determined to be seronegative for HIV and HBV. Depending on the volume of donor blood received, the leukophoresed blood cells were washed several times with PBS. After washing, the leukophoresed blood was diluted 1:1 with Dulbecco's phosphate buffered saline (PBS) and layered over 15 mL of Ficoll-Hypaque density gradient in a 50 ml conical centrifuge tube. These tubes were centrifuged for 30 min at 600 g. Banded PBMCs were gently aspirated from the resulting interface and washed three times with PBS. […] After incubation, PBMCs were centrifuged and resuspended in tissue culture medium. The cultures were maintained until use by half-volume culture changes with fresh IL-2 containing tissue culture medium every 3 days. […]
Following addition of test compound to the wells, 50 uL of a predetermined dilution of HIV virus (prepared from 4× of final desired in-well concentration) was added, and mixed well. […] After 7 days in culture, HIV-1 replication was quantified in the tissue culture supernatant by measurement of reverse transcriptase (RT) activity. […]
Reverse Transcriptase Activity Assay—Reverse transcriptase activity was measured in cell-free supernatants using a standard radioactive incorporation polymerization assay. […]

VZV = VZV antiviral assay; format: cell-based; conditions: Human alphaherpesvirus 3
[1] = Cytotoxicity in PBM cells; format: cell-based; conditions: human, peripheral blood mononuclear cells (PBMCs), PHA-P stimulated; beside HIV
[2] = Cytotoxicity in HepG2 cells (HBV assay); format: cell-based; conditions: human, HepG2.2.15 cells; beside HBV
Description: The 50% cytotoxic concentration for the test materials are derived by measuring the reduction of the tetrazolium dye XTT in the treated tissue culture plates. XTT is metabolized by the mitochondrial enzyme […] to a soluble formazan product in metabolically active cells. […] The 2-4 hour incubation has been empirically determined to be within linear response range for XTT dye reduction with the indicated numbers of cells for each assay. […] Data were collected by Softmax 4.6 software and imported into an Excel spreadsheet for analysis.

HSV-1 = HSV-1 antiviral assay; format: cell-based; conditions: Human alphaherpesvirus 1
MRC-5 Cells = experiment: Cytotoxicity in MRC-5 cells (HCMV, VZV assays); format: cell-based; conditions: beside VZV
[3] = Cytotoxicity in MRC-5 cells (HCMV, VZV assays); format: cell-based; conditions: human, MRC-5 cells; beside HCMV
Adenovirus = Adenovirus antiviral assay; format: cell-based; conditions: unidentified adenovirus
HBV = HBV antiviral assay; format: cell-based; conditions: Hepatitis B virus
Description: Ten microliters of cell culture supernatant collected on the sixth day was diluted in qPCR dilution buffer (40 μg/mL sheared salmon sperm DNA) and boiled for 15 minutes. Quantitative real time PCR was performed in […] using an Applied Biosystems 7900HT Sequence Detection System and the supporting SDS 2.4 software. Five microliters (5 μL) of boiled DNA for each sample and serial 10-fold dilutions of a quantitative DNA standard were subjected to real time Q-PCR using Platinum Quantitative PCR SuperMix-UDG (Invitrogen) and specific DNA oligonucleotide primers (IDT, Coralville, […]) HBV-AD38-qF1 (5′-[…] -3′) (SEQ ID NO: 1), HBV-AD38-qR1 (5′-AGT CCA AGA GTY CTC TTA TRY AAG ACC TT-3′) (SEQ ID NO: 2), and HBV-AD38-qP1 (5′-FAM CCG TGT GCA/ZEN/[…] -3′BHQ1) (SEQ ID NO: 3) at a final concentration of 0.2 μM for each primer in a total reaction volume of 15 μL. The HBV DNA copy number in each sample was interpolated from the standard curve by the SDS.24 software and the data were imported into an Excel spreadsheet for analysis.

Huh-7 cells [4] = experiment: Cytotoxicity in Huh-7 cells (Adenovirus, HSV-1 assays); format: cell-based, human; conditions: beside HSV-1
Dengue Type 2 [5] = experiment: Anti-Dengue virus cytoprotection assay, Huh-7 cells; conditions: Huh-7, read-out: Dengue Type 2 Huh-7 Cells (EC50 uM)
[6] = Cytotoxicity in Vero cells (Dengue assay); conditions: African green monkey
Cytotoxicity (CC50) CEM = conditions: human, CEM cells
[7] = Cytotoxicity in Huh-7 cells (Dengue assay); conditions: human, Huh-7 cells
Cytotoxicity (CC50) A204 = format: cell-based; conditions: human, A204 cells
[8] = Cytotoxicity (CC50) HepG2; conditions: human, HepG2 cells
Dengue Type 2 [9] = experiment: Anti-Dengue virus cytoprotection assay, Vero cells; conditions: read-out: Dengue Type 2 Vero Cells (EC50 uM)
[10] = Cytotoxicity (CC50) BxPC3; conditions: human, BxPC3 cells
[11] = Cytotoxicity (CC50) Huh-7; conditions: human, Huh-7 cells
[12] = Cytotoxicity (CC50) IEC-6; format: cell-based; conditions: rat, IEC-6 cells
Cytotoxicity (CC50) H9c = format: cell-based; conditions: rat, H9c cells
Huh-7 cells [13] = experiment: Cytotoxicity in Huh-7 cells (Dengue assay); conditions: read-out: CC50 uM; Cell Line Huh-7; […], 3, 4 table

## CC(C)OC(=O)[C@H](C)NP(=O)(OC[C@H]1O[C@@H](n2ccc(=O)[nH]c2=S)C(C)(O)[C@H]1O)Oc1ccccc1 (some centres unmarked) [drawing 394]
HCMV
  EC50: > 100 µM
HIV
  EC50: > 100 µM
VZV
  EC50: > 100 µM
[1]
  CC50 at 7 days: > 100 µM
[2]
  CC50 at 6 days: > 100 µM
HSV-1
  EC50: > 100 µM
MRC-5 Cells
  CC50: > 100 µM
[3]
  CC50: > 100 µM
Adenovirus
  EC50: > 100 µM
HBV
  EC50: > 100 µM
Huh-7 cells [4]
  CC50: > 100 µM

## CC(C)OC(=O)[C@H](C)NP(=O)(OC[C@H]1O[C@@H](n2ccc(=O)[nH]c2=S)C(C)(O)[C@H]1O)Oc1ccccc1 (some centres unmarked) [drawing 387]
Dengue Type 2 [5]
  EC50: 5.1 µM
[6]
  CC50: > 100 µM
Cytotoxicity (CC50) CEM
  CC50: > 300 µM
[7]
  CC50: > 100 µM
Cytotoxicity (CC50) A204
  CC50: 98 µM
[8]
  CC50: > 400 µM
Dengue Type 2 [9]
  EC50: 2.02 µM
[10]
  CC50: > 300 µM
[11]
  CC50: > 400 µM
[12]
  CC50: > 200 µM
Cytotoxicity (CC50) H9c
  CC50: > 200 µM

## CC(C)OC(=O)[C@H](C)N[P@](=O)(OC[C@H]1O[C@@H](n2ccc(=O)[nH]c2=S)C(C)(O)[C@H]1O)Oc1ccccc1 (some centres unmarked) [drawing 393]
Huh-7 cells [13]
  CC50: > 100 µM
